Data: patent US9446039B2, “Aminoheteroaryl compounds as MTH1 inhibitors” (CEMM—FORSCHUNGSZENTRUM FÜR MOLEKULARE MEDIZIN GMBH, priority 2012, dated 2016)

Experiments:
Format in all cases: binding
[1] = biological target: SW480 colon carcinoma cells lysate proteins (Homo sapiens, UniProt Q07812); conditions: PreyGene BAX; SW480 cells
[2] = biological target: SW480 colon carcinoma cells lysate proteins (Homo sapiens, UniProt P63244); conditions: PreyGene GNB2L1; SW480 cells
[3] = biological target: SW480 colon carcinoma cells lysate proteins (Homo sapiens, UniProt Q13200); conditions: PreyGene PSMD2
SW480 colon carcinoma cells lysate proteins (Homo sapiens, UniProt Q13200), sequence (Q13200 whole entry): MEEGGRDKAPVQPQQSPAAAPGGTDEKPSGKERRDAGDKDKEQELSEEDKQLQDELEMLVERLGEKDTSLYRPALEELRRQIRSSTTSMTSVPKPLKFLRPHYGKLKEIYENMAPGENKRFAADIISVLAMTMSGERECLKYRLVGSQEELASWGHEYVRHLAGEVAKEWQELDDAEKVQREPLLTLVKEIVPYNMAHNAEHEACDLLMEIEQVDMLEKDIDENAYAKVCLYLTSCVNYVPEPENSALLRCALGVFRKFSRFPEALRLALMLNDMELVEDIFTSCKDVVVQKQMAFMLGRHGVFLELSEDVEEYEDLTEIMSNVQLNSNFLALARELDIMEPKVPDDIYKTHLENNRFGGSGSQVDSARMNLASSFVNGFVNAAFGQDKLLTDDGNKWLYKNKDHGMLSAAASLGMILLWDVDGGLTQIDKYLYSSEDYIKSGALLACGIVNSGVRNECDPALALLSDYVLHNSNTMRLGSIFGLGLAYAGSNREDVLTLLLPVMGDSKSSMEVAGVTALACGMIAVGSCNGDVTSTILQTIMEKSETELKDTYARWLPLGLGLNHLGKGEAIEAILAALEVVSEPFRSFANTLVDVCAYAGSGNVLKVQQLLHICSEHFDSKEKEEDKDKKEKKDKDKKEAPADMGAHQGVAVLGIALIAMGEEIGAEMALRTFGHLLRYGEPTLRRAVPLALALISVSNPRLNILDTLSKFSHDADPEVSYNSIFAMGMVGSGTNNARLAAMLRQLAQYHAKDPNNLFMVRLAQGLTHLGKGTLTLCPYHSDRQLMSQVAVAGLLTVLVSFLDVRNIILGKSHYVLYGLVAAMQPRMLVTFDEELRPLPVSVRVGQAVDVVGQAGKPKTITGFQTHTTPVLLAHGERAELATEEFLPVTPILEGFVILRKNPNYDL

[4] = biological target: SW480 colon carcinoma cells lysate proteins (Homo sapiens, UniProt Q71U36); conditions: PreyGene TUBA1A; SW480 cells
SW480 colon carcinoma cells lysate proteins (Homo sapiens, UniProt Q71U36), sequence (Q71U36 whole entry): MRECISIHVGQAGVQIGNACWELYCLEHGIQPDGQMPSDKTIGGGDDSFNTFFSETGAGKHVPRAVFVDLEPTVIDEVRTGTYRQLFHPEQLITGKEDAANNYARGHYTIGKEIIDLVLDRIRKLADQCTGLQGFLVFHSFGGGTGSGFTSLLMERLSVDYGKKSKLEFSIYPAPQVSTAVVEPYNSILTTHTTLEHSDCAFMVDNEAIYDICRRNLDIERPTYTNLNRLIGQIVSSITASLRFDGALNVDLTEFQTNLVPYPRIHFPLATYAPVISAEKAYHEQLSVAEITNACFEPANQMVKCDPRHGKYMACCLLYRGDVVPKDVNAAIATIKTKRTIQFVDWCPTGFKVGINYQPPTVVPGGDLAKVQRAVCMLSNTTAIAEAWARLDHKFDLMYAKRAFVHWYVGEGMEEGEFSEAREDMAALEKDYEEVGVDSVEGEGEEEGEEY

[5] = biological target: T1, SW480 colon carcinoma cells lysate proteins (Homo sapiens, UniProt O43175); conditions: PreyGene PHGDH
T1 sequence (O43175 1-533): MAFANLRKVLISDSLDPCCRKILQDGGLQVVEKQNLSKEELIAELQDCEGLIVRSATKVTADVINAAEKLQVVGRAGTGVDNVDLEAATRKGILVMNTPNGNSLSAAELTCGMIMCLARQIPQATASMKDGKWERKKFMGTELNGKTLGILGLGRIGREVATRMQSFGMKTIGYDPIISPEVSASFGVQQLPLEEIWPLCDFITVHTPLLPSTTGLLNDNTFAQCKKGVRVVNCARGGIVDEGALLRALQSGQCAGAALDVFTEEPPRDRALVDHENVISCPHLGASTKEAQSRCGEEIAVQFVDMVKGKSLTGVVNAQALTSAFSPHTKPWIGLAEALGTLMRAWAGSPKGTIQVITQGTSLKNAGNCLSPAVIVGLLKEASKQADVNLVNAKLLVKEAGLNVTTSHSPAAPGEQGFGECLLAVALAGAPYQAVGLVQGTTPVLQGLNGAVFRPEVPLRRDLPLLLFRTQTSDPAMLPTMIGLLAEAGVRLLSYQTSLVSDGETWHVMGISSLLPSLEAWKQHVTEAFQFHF

[6] = biological target: T2, SW480 colon carcinoma cells lysate proteins (Homo sapiens, UniProt Q14847); conditions: PreyGene LASP1; SW480 cells
T2 sequence (Q14847 1-261): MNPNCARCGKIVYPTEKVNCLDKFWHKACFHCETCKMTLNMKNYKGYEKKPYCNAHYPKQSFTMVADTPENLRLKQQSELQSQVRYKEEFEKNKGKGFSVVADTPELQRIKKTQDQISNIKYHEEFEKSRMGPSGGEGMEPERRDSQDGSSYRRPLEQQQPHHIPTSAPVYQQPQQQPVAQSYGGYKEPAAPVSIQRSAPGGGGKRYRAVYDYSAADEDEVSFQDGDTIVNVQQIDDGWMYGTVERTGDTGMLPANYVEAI

[7] = biological target: T3, SW480 colon carcinoma cells lysate proteins (Homo sapiens, UniProt Q14019); conditions: PreyGene COTL1
T3 sequence (Q14019 1-142): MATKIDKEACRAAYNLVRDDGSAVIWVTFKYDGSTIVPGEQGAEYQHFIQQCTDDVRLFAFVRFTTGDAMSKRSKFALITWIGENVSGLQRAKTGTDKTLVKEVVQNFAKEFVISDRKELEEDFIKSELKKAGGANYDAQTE

[8] = biological target: SW480 colon carcinoma cells lysate proteins (Homo sapiens, UniProt Q9BZK3); conditions: PreyGene NACAP1; SW480 cells
[9] = biological target: T4, SW480 colon carcinoma cells lysate proteins (Homo sapiens, UniProt P78371); conditions: PreyGene CCT2; SW480 cells
T4 sequence (P78371 1-535): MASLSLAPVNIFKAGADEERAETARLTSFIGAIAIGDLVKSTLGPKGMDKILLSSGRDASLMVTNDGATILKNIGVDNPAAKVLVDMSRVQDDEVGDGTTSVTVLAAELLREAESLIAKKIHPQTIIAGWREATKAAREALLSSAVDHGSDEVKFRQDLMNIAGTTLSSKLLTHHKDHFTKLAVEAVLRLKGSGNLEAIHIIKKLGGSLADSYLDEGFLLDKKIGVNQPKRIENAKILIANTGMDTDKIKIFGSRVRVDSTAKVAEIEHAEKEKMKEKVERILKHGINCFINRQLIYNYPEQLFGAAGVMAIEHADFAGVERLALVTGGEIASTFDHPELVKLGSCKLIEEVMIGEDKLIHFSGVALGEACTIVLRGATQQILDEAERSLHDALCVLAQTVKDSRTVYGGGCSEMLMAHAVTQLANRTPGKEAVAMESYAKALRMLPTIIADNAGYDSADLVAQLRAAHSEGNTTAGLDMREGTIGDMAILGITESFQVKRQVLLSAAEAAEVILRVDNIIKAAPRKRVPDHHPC

SW480 colon carcinoma cells lysate proteins (Homo sapiens, UniProt Q07812), sequence (Q07812 whole entry): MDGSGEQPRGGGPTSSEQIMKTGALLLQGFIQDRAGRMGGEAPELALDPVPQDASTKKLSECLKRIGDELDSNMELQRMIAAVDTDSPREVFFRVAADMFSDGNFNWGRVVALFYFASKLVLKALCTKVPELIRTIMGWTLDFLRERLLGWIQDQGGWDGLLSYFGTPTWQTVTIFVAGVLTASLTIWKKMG

For `C[C@H](Oc1cc(-c2cnn(C3CCNCC3)c2)cnc1N)c1c(Cl)ccc(F)c1Cl` [(5)-crizotinib], the AvgP [1] was 0, the “SC.Exp. 1-1” value [1] was 1 and the “SC.Exp. 1-2” value [1] was 1. For the same compound, the “SC.Exp. 2-1” value [1] was 1, the “SC.Exp. 2-2” value [1] was 1 and the “SC.Exp. Sum” value [1] was 4. For the same compound, the AvgP [2] was 0, the “SC.Exp. 1-1” value [2] was 12 and the “SC.Exp. 1-2” value [2] was 13. The “SC.Exp. 2-1” value [2] was 9, the “SC.Exp. 2-2” value [2] was 11 and the “SC.Exp. Sum” value [2] was 45. For the same compound, the AvgP [3] was 0.4359, the “SC.Exp. 1-1” value [3] was 6 and the “SC.Exp. 1-2” value [3] was 5. For the same compound, the “SC.Exp. 2-1” value [3] was 0, the “SC.Exp. 2-2” value [3] was 0 and the “Sum (SC.Exp.)” value [3] was 11. The AvgP [4] was 0, the “SC.Exp. 1-1” value [4] was 12 and the “SC.Exp. 1-2” value [4] was 11. For the same compound, the “SC.Exp. 2-1” value [4] was 9, the “SC.Exp. 2-2” value [4] was 10 and the “SC.Exp. Sum” value [4] was 42. For the same compound, the AvgP [5] was 0.4081, the “SC.Exp. 1-1” value [5] was 5 and the “SC.Exp. 1-2” value [5] was 7. For the same compound, the “SC.Exp. 2-1” value [5] was 0, the “SC.Exp. 2-2” value [5] was 0 and the “Sum (SC.Exp.)” value [5] was 12. For the same compound, the AvgP [6] was 0, the “SC.Exp. 1-1” value [6] was 0 and the “SC.Exp. 1-2” value [6] was 1. The “SC.Exp. 2-1” value [6] was 0, the “SC.Exp. 2-2” value [6] was 0 and the “SC.Exp. Sum” value [6] was 1. For the same compound, the AvgP [7] was 0.4372, the “SC.Exp. 1-1” value [7] was 5 and the “SC.Exp. 1-2” value [7] was 4. For the same compound, the “SC.Exp. 2-1” value [7] was 0, the “SC.Exp. 2-2” value [7] was 0 and the “Sum (SC.Exp.)” value [7] was 9. The AvgP [8] was 0, the “SC.Exp. 1-1” value [8] was 0 and the “SC.Exp. 1-2” value [8] was 0. The “SC.Exp. 2-1” value [8] was 1, the “SC.Exp. 2-2” value [8] was 0 and the “SC.Exp. Sum” value [8] was 1. The AvgP [9] was 0, the “SC.Exp. 1-1” value [9] was 9 and the “SC.Exp. 1-2” value [9] was 11. For the same compound, the “SC.Exp. 2-1” value [9] was 3, the “SC.Exp. 2-2” value [9] was 3 and the “SC.Exp. Sum” value [9] was 26.
